Measured values: patent publication US7799775B2, “Pyrimidine derivatives” (ASKA Pharmaceutical Co., Ltd., priority 2004, dated 2010)

How the values were obtained:
human 5-HT3 receptor = target: T1, human 5-HT3 receptor (Homo sapiens, UniProt P46098); assay: Measurement of affinity to human 5-HT3 receptor (in vitro), [3H]BRL-43694 binding; conditions: test compound 100 nmols/L, [3H]BRL-43694 0.5 nmols/L, HEK-293 cell membrane expressing human 5-HT3 receptor; for inhibition at 0.1 µM: read-out: Percent Inhibition (%) on Each Receptor's Binding at 10^−7M, 5-HT3
T1 construct: purchased BIOLINKS K.K; host or cells: HEK-293 cells (membrane preparation)
T1 sequence (P46098 24-478): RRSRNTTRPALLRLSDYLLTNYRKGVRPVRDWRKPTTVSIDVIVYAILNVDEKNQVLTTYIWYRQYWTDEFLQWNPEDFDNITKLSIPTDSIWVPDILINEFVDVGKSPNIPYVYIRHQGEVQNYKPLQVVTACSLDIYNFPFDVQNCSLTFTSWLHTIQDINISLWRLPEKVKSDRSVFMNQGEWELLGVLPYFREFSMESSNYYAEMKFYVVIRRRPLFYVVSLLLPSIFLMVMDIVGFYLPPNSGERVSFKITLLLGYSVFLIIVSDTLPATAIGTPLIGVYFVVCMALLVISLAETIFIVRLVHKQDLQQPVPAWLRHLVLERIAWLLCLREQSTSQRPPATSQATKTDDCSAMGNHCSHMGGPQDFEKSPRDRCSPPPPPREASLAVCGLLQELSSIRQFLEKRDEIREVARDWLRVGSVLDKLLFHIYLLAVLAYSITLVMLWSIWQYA
Method: (2) Measurement of Affinity of Each Test Compound to Human 5-HT3 Receptor (in Vitro):
HEK-293 cell membrane sample in which human 5-HT3 receptor was expressed (purchased from BIOLINKS K.K.) 0.05 mL (about 50 microassay) was added to 24.95 mL of incubation buffer solution B (an aqueous solution of a mixture of 50 mmols/L of Tris-hydrochloric acid, 5 mmols/L of magnesium chloride and 1 mmol/L of EDTA, whose pH was adjusted to 7.5 at 25° C. with 1N-aqueous sodium hydroxide solution) and homogenized, to provide a membrane sample suspension B. Separately, each test compound was made into 270 μmols/L of DMSO solution and diluted to a prescribed concentration with the incubation buffer solution B to provide a compound solution.
A piece of polypropylene tube was charged with 20 μL of [^3H]BRL-43694 (purchased from Daiichi Pure Chemicals Co., Ltd.) (The concentration of [^3H]BRL-43694 had been advancedly adjusted to render its concentration in the reaction mixture to 0.5 nmols/L.) and 20 μL of one of the compound solutions. Further 500 μL of the membrane sample suspension B was added into the tube, followed by 60 minutes' incubation at 25° C. The reaction was terminated by rapid filtration of the reaction mixture through GF/B filter which had been advancedly immersed in a solution formed by adding to the incubation buffer solution B polyethyleneimine to a concentration of 0.5%, using Brandel cell harvester. Then the filter was washed with about 5 mL of 50 mmols/L of Tris-hydrochloric acid which had been cooled to 4° C. The filter was once again washed after similar operation.
(§1) Residual radioactivity on the filter was measured with liquid scintillation counter (ALOKA CO., LTD. LSC-5100). Percent inhibition (%) of each test compound to binding of [^3H]BRL-43694 to 5-HT3 receptor at a concentration of 0.5 nmols/L, i.e., affinity of each test compound to 5-HT3 receptor, can be calculated according to the following expression. The ratio of non-specific binding was calculated by measuring the radioactivity in case of using tropisetron: (ICS 205-930) at a concentration of 10 μmols/L, with which value the measured value of each test compound was compensated.
(§2) Affinity of each test compound to 5-HT1A receptor and 5-HT3 receptor at a concentration of 100 nmols/L were as shown in the following Tables A-1 and A-2. BRL-43694 and tropisetron (ICS 205-930), which were used in measuring affinity of those compounds to 5-HT3 receptor, have the following structures: […]

human 5-HT1A receptor = target: T2, human 5-HT1A receptor (Homo sapiens, UniProt P08908); assay: Affinity measurement of the compounds to human 5-HT1A receptor (in vitro), [3H]8-OH-DPAT binding; conditions: test compound 100 nmols/L, [3H]8-OH-DPAT 0.25 nmols/L, CHO cell membrane expressing human 5-HT1A receptor; for inhibition at 0.1 µM: read-out: Percent Inhibition (%) on Each Receptor's Binding at 10^−7M, 5-HT1A
T2 construct: purchased Packard Bioscience; host or cells: CHO cells (membrane preparation)
T2 sequence (P08908 1-422): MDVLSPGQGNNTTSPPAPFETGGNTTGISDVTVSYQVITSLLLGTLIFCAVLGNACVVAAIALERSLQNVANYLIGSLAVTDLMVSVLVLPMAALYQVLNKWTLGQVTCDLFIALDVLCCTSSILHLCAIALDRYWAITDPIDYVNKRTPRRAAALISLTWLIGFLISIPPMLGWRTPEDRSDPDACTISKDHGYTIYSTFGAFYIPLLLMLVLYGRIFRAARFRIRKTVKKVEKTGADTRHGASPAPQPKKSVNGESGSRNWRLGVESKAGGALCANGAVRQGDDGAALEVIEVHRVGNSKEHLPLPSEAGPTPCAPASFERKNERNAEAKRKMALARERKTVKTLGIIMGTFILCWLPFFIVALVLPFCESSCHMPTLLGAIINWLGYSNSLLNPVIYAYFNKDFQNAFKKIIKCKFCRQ
Method: (1) Affinity Measurement of the Compounds to Human 5-HT1A Receptor (in Vitro)
CHO cell membrane sample in which human 5-HT1A receptor was expressed (purchased from Packard Bioscience) 0.25 mL (about 50 units) was added to 24.75 mL of incubation buffer solution A (an aqueous solution of a mixture of 50 mmols/L of Tris-hydrochloric acid, 10 mmols/L of magnesium sulfate, 0.5 mmols/L of EDTA and 0.1% ascorbic acid, whose pH was adjusted to 7.4 at 27° C. with 1N-aqueous sodium hydroxide solution), and labeled as membrane sample suspension A. Separately, each test compound was made into 270 μmols/L DMSO solution and diluted to a prescribed concentration with the incubation buffer solution A, to provide a compound solution.
A piece of polypropylene tube was charged with 20 μL of [^3H]8-OH-DPAT (8-hydroxy-2-(di-n-propylamino)tetralin; purchased from Daiichi Pure Chemicals Co., Ltd.) (The concentration of the [^3H]8-OH-DPAT had been advancedly adjusted to render its concentration in the reaction mixture to 0.25 nmols/L) and 20 μL of one of the compound solutions. Further 500 μL of the membrane sample suspension A was added into the tube, followed by 60 minutes' incubation at 27° C. The reaction was terminated by rapid filtration of the reaction mixture through GF/C filter which had been advancedly immersed in a solution formed by adding to the incubation buffer solution A polyethyleneimine to a concentration of 0.3%, using Brandel cell harvester. Then the filter was washed with about 5 mL of 50 mmols/L of Tris-hydrochloric acid which had been cooled to 4° C. The filter was once again washed after similar operation.
as §1, with “(Aloka Co.,” for “(ALOKA CO., LTD.”, “[^3H]8-OH-DPAT” for “[^3H]BRL-43694”, “5-HT1A” for “5-HT3”, “0.25” for “0.5”, “8-OH-DPAT” for “tropisetron: (ICS 205-930)”
as §2

| SMILES | inhibition at 0.1 µM (human 5-HT3 receptor) | inhibition at 0.1 µM (human 5-HT1A receptor) | Percent Inhibition (%) on Each Receptor's Binding at 10^−7M, 5-HT3 (human 5-HT3 receptor) | Percent Inhibition (%) on Each Receptor's Binding at 10^−7M, 5-HT1A (human 5-HT1A receptor) |
| --- | --- | --- | --- | --- |
| O[C@@H]1C[C@H]2CN(c3nccc4occc34)CCN2C1 [Production Example 114, 4-((7R,8aS)-7-hydroxyoctahydropyrrolo[1,2-a]pyrazin-2-yl)furo[3,2-c]-pyridine] | 91% | 16.7% |  |  |
| Cn1c(CCCN2CCN(c3ccc4ccccc4n3)CC2)nc2c(c1=O)CCCC2 [Example 7-5, 3-methyl-2-[3-(4-quinolin-2-ylpiperazin-1-yl)propyl]-5,6,7,8-tetrahydro-3H-quinazolin-4-one] | 6.3% | 53% |  |  |
| O[C@@H]1C[C@H]2CN(c3nccc4ccsc34)CCN2C1 [Production Example 112, 7-((7R,8aS)-7-hydroxyoctahydropyrrolo[1,2-a]pyrazin-2-yl)thieno-[2,3-c]pyridine] | 98.8% | 53.9% |  |  |
| COc1ccc2ccnc(N3CCN(Cc4ccc5c(c4)OCO5)CC3)c2c1 [Production Example 71, 1-(4-benzo[1,3]dioxol-5-ylmethylpiperazin-1-yl)-7-methoxyisoquinoline] | 42.2% | 94.8% |  |  |
| Nn1c(CCCCN2CCN(c3ccc4ccccc4n3)CC2)nc2c(c1=O)CC(O)CC2 (stereo not shown) [Example 4-70, 3-amino-6-hydroxy-2-[4-(4-quinolin-2-ylpiperazin-1-yl)butyl]-5,6,7,8-tetrahydro-3H-quinazolin-4-one] | 92.5% | 96.1% |  |  |
| COc1cc(N2CCN(CCCCc3nc4ccccc4c(=O)n3N)CC2)nc2ccccc12 [Example 4-22, 3-amino-2-[4-(4-methoxyquinolin-2-yl)piperazin-1-yl]butyl-3H-quinazolin-4-one] |  |  | 93.9% | 58.2% |
| CN1CCN(c2nccc3c(Cl)cccc23)CC1 [Production Example 61, 5-chloro-1-(4-methylpiperazin-1-yl)isoquinoline] | 94.1% | 25.3% |  |  |
| Fc1ccc2ccnc(N3CCNCC3)c2c1 [Production Example 63, 7-fluoro-1-piperazin-1-ylisoquinoline] | 96.8% | 80.4% |  |  |
| Cn1c(CCCCN2CCN(c3nc4ccccc4s3)CC2)nc2c(c1=O)CCCC2 [Example 7-9, 2-[4-(4-benzothiazol-2-ylpiperazin-1-yl)butyl]-3-methyl-5,6,7,8-tetrahydro-3H-quinazolin-4-one] | 32% | 91% |  |  |
| NS(=O)(=O)Oc1ccc2ccnc(N3CCN4CCC[C@H]4C3)c2c1 [Production Example 87] | 96.9% | 96.4% |  |  |
| COc1ccc2ccnc(N3CCN4CCCCC4C3)c2c1 (stereo not shown) [Production Example 81, 7-methoxy-1-octahydropyrido[1,2-a]pyrazin-2-ylisoquinoline] | 74.4% | 95.8% |  |  |
| Cc1sc2nc(SCCCN3CCN(c4ccc5ccccc5n4)CC3)n(N)c(=O)c2c1C [Example 1-1, 3-amino-5,6-dimethyl-2-[3-(4-quinolin-2-ylpiperazin-1-yl)-propylthio]-3H-thieno[2,3-d]pyrimidin-4-one] | 94% | 94.5% |  |  |
| Cc1cc2c(N3CCNCC3)nccc2o1 [Production Example 25, 2-methylpiperazin-1-ylfuro[3,2-c]pyridine] | 65.5% | 83.2% |  |  |
| c1cc2ccoc2c(N2CCN3CCC[C@@H]3C2)n1 [Production Example 110, 7-((8aR)-octahydropyrrolo[1,2-a]pyrazin-2-yl)furo[2,3-c]pyridine] | 97.9% | 98.9% |  |  |
| CN1CCN(c2nccc3ccc(F)cc23)CC1 [Production Example 52, 7-fluoro-1-(4-methylpiperazin-1-yl)isoquinoline] | 97% | 84.1% |  |  |
| Cc1cc(N2CCN(CCCNc3nc4c(c(=O)[nH]3)CCCC4)CC2)nc2ccccc12 [Example 5-3, 2-[3-[4-(4-methylquinolin-2-yl)piperazin-1-yl]propylamino]-5,6,7,8-tetrahydro-3H-quinazolin-4-one] | 74.5% | 76% |  |  |
| COc1ccc2c(C)cnc(N3CCNCC3)c2c1 [Production Example 28, 7-methoxy-4-methyl-1-piperazin-1-ylisoquinoline] | 92.5% | 23.9% |  |  |
| O=c1[nH]c(NCCCN2CCN(c3ccc4ccccc4n3)CC2)nc2c1CCCC2 [Example 5-1, 2-[3-(4-quinolin-2-ylpiperazin-1-yl)propylamino]-5,6,7,8-tetrahydro-3H-quinazolin-4-one] | 94.8% | 74% |  |  |
| CCN1CCN(c2nccc3ccsc23)CC1 [Production Example 17, 7-(4-ethylpiperazin-1-yl)-thieno[2,3-c]pyridine] | 82.9% | 83.6% |  |  |
| c1cc2sccc2c(N2CCN3CCC[C@@H]3C2)n1 [Production Example 109, 4-((8aR)-octahydropyrrolo[1,2-a]pyrazin-2-yl)thieno[3,2-c]pyridine] | 92.5% | 75.4% |  |  |
